From the supplement of paper PMC11061612

Columns and labels:
Assay in all cases: combination Emax (second highest fraction inhibited in the dose matrix, 72 h); higher = more inhibition; extreme values may be limits of the assay
[1] = test system: SW684 (Other Solid Carcinomas)
Procedure, shortened: (§1)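 Cell lines grown in DMEM/F12 or RPMI with 10% FBS were plated in 1536-well plates and held 24 hours at 37°C, 5% CO2 before 72 hours of exposure to two-drug dose matrices, with DMSO typically at 0.2%. CellTiter-Glo 2.0 luminescence gave viability, which was converted to inhibition. Vehicle wells were set to 0 and blank wells to 1. Combination Emax is the second-highest inhibition in the matrix, and Bliss excess is the observed combination effect minus the expected EA + EB − EA·EB, where EA and EB are the single-agent effects.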

[2] = test system: PANC-02-03 (Pancreatic Carcinoma)
Procedure, shortened: as §1

[3] = test system: AsPC-1 (Pancreatic Carcinoma)
Procedure, shortened: as §1

[4] = test system: RERF-LC-KJ (Lung Adenocarcinoma)
Procedure, shortened: as §1

Row | Structure (SMILES) | combination Emax [1] | combination Emax [2] | combination Emax [3] | combination Emax [4]
1 | CN(C)CCCOc1ccc(-c2ccc3ncc4c(c3c2)n(C2CCOCC2)c(=O)n4C)cn1 [AZD0156] + C=CCn1c(=O)c2cnc(Nc3ccc(N4CCN(C)CC4)cc3)nc2n1-c1cccc(C(C)(C)O)n1 [AZD1775] (first compound max 1 µM, partner max 1 µM) | 0.107 | 0.672 | 0.317 | 0.33
2 | CN(C)CCCOc1ccc(-c2ccc3ncc4c(c3c2)n(C2CCOCC2)c(=O)n4C)cn1 [AZD0156] + CCN(CCO)CCCOc1ccc2c(Nc3cc(CC(=O)Nc4cccc(F)c4)[nH]n3)ncnc2c1 [AZD2811] (first compound max 1 µM, 7x7, partner max 1 µM) | 0.154 | 0.163 | 0.0981 | 0.359
3 | CN(C)CCCOc1ccc(-c2ccc3ncc4c(c3c2)n(C2CCOCC2)c(=O)n4C)cn1 [AZD0156] + C[C@@H]1COCCN1C2=NC(=NC(=C2)C3(CC3)[S@](=N)(=O)C)C4=C5C=CNC5=NC=C4 [AZD6738] (first compound max 1 µM, 7x7, partner max 10 µM) | 0.301 | 0.579 | 0.454 | 0.225
4 | C=CCn1c(=O)c2cnc(Nc3ccc(N4CCN(C)CC4)cc3)nc2n1-c1cccc(C(C)(C)O)n1 [AZD1775] + C[C@@H]1COCCN1C2=NC(=NC(=C2)C3(CC3)[S@](=N)(=O)C)C4=C5C=CNC5=NC=C4 [AZD6738] (first compound max 1 µM, partner max 10 µM) | 0.474 | 0.728 | 0.475 | 0.413
5 | C=CCn1c(=O)c2cnc(Nc3ccc(N4CCN(C)CC4)cc3)nc2n1-c1cccc(C(C)(C)O)n1 [AZD1775] + O=C(c1cc(Cc2n[nH]c(=O)c3ccccc23)ccc1F)N1CCN(C(=O)C2CC2)CC1 [Olaparib] (first compound max 1 µM, partner max 10 µM) | 0.249 | 0.667 | 0.29 | 0.276
6 | CCN(CCO)CCCOc1ccc2c(Nc3cc(CC(=O)Nc4cccc(F)c4)[nH]n3)ncnc2c1 [AZD2811] + C=CCn1c(=O)c2cnc(Nc3ccc(N4CCN(C)CC4)cc3)nc2n1-c1cccc(C(C)(C)O)n1 [AZD1775] (first compound max 1 µM, partner max 1 µM) | 0.165 | 0.538 | 0.293 | 0.312
7 | CCN(CCO)CCCOc1ccc2c(Nc3cc(CC(=O)Nc4cccc(F)c4)[nH]n3)ncnc2c1 [AZD2811] + C[C@@H]1COCCN1C2=NC(=NC(=C2)C3(CC3)[S@](=N)(=O)C)C4=C5C=CNC5=NC=C4 [AZD6738] (first compound max 1 µM, 7x7, partner max 10 µM) | 0.385 | 0.62 | 0.42 | 0.319
8 | CCN(CCO)CCCOc1ccc2c(Nc3cc(CC(=O)Nc4cccc(F)c4)[nH]n3)ncnc2c1 [AZD2811] + O=C(c1cc(Cc2n[nH]c(=O)c3ccccc23)ccc1F)N1CCN(C(=O)C2CC2)CC1 [Olaparib] (first compound max 1 µM, 7x7, partner max 10 µM) | 0.265 | 0.307 | 0.18 | 0.333
9 | CN(CCO)CC[C@H](CSc1ccccc1)Nc1ccc(S(=O)(=O)NC(=O)c2ccc(N3CCC([C@@H](O)c4ccccc4-c4ccc(Cl)cc4)CC3)cc2)cc1S(=O)(=O)C(F)(F)F [AZD4320] + C1CN(CCC1(C(=O)N[C@@H](CCO)C2=CC=C(C=C2)Cl)N)C3=NC=NC4=C3C=CN4 [Capivasertib] (first compound max 1 µM, 7x7, partner max 3 µM) | 0.449 | 0.0923 | 0.643 | 0.293
10 | CN(CCO)CC[C@H](CSc1ccccc1)Nc1ccc(S(=O)(=O)NC(=O)c2ccc(N3CCC([C@@H](O)c4ccccc4-c4ccc(Cl)cc4)CC3)cc2)cc1S(=O)(=O)C(F)(F)F [AZD4320] + C=CCn1c(=O)c2cnc(Nc3ccc(N4CCN(C)CC4)cc3)nc2n1-c1cccc(C(C)(C)O)n1 [AZD1775] (first compound max 1 µM, partner max 1 µM) | 0.381 | 0.585 | 0.728 | 0.272
11 | CN(CCO)CC[C@H](CSc1ccccc1)Nc1ccc(S(=O)(=O)NC(=O)c2ccc(N3CCC([C@@H](O)c4ccccc4-c4ccc(Cl)cc4)CC3)cc2)cc1S(=O)(=O)C(F)(F)F [AZD4320] + CCN(CCO)CCCOc1ccc2c(Nc3cc(CC(=O)Nc4cccc(F)c4)[nH]n3)ncnc2c1 [AZD2811] (first compound max 1 µM, 7x7, partner max 1 µM) | 0.158 | 0.179 | 0.541 | 0.309
12 | CN(CCO)CC[C@H](CSc1ccccc1)Nc1ccc(S(=O)(=O)NC(=O)c2ccc(N3CCC([C@@H](O)c4ccccc4-c4ccc(Cl)cc4)CC3)cc2)cc1S(=O)(=O)C(F)(F)F [AZD4320] + CN(C)CCCOc1ccc(-c2ccc3ncc4c(c3c2)n(C2CCOCC2)c(=O)n4C)cn1 [AZD0156] (first compound max 1 µM, 7x7, partner max 1 µM) | 0.19 | 0.138 | 0.602 | 0.267
13 | CN(CCO)CC[C@H](CSc1ccccc1)Nc1ccc(S(=O)(=O)NC(=O)c2ccc(N3CCC([C@@H](O)c4ccccc4-c4ccc(Cl)cc4)CC3)cc2)cc1S(=O)(=O)C(F)(F)F [AZD4320] + C[C@@H]1COCCN1C2=NC(=NC(=C2)C3(CC3)[S@](=N)(=O)C)C4=C5C=CNC5=NC=C4 [AZD6738] (first compound max 1 µM, 7x7, partner max 10 µM) | 0.537 | 0.615 | 0.662 | 0.324
14 | CN(CCO)CC[C@H](CSc1ccccc1)Nc1ccc(S(=O)(=O)NC(=O)c2ccc(N3CCC([C@@H](O)c4ccccc4-c4ccc(Cl)cc4)CC3)cc2)cc1S(=O)(=O)C(F)(F)F [AZD4320] + C[C@@H](Nc1cc(F)cc(F)c1)c1cc(C(=O)N(C)C)cc2c(=O)cc(N3CCOCC3)oc12 [AZD8186] (first compound max 1 µM, 7x7, partner max 3 µM) | 0.702 | 0.278 | 0.739 | 0.431
15 | COc1nnc2ccc(N3CCC(c4ccc(OCCN5CCN(C)C(=O)[C@H]5C)cc4)CC3)nn12 [AZD5153] + CN(CC[C@H](CSC1=CC=CC=C1)NC2=C(C=C(C=C2)S(=O)(=O)NC(=O)C3=CC=C(C=C3)N4CCC(CC4)[C@H](C5=CC=CC=C5C6=CC=C(C=C6)Cl)O)S(=O)(=O)C(F)(F)F)CCO [AZD4320] (first compound max 1 µM, 7x7, partner max 1 µM) | – | – | 0.559 | 0.979
16 | CC(=O)c1c(C)c2cnc(Nc3ccc(N4CCNCC4)cn3)nc2n(C2CCCC2)c1=O [Palbociclib] + CN(CC[C@H](CSC1=CC=CC=C1)NC2=C(C=C(C=C2)S(=O)(=O)NC(=O)C3=CC=C(C=C3)N4CCC(CC4)[C@H](C5=CC=CC=C5C6=CC=C(C=C6)Cl)O)S(=O)(=O)C(F)(F)F)CCO [AZD4320] (first compound max 10 µM, 7x7, partner max 1 µM) | – | – | 0.488 | 0.141
17 | CCc1c2c(nc3ccc(O)cc13)-c1cc3c(c(=O)n1C2)COC(=O)[C@]3(O)CC [SN-38] + O=C(c1cc(Cc2n[nH]c(=O)c3ccccc23)ccc1F)N1CCN(C(=O)C2CC2)CC1 [Olaparib] (first compound max 0.3 µM, 7x7, partner max 10 µM) | 0.556 | 0.728 | 0.156 | –
18 | C[C@@H](c1ccc2nccn2c1)n1nnc2ncc(-c3cnn(C)c3)nc21 [Savolitinib] + CN(CC[C@H](CSC1=CC=CC=C1)NC2=C(C=C(C=C2)S(=O)(=O)NC(=O)C3=CC=C(C=C3)N4CCC(CC4)[C@H](C5=CC=CC=C5C6=CC=C(C=C6)Cl)O)S(=O)(=O)C(F)(F)F)CCO [AZD4320] (first compound max 1 µM, 7x7, partner max 1 µM) | – | – | 0.572 | 0.206
